Activity calls are given as the source filed them. No cut-off for these calls is given here.
Columns and labels:
[1] = biological target: Cathepsin B (Mus musculus) (UniProt P10605); assay: Binding affinity to cathepsin B in mouse spleen crude extracts at 500 nM; type: tissue-based
[2] = biological target: Cathepsin B (Mus musculus) (UniProt P10605); assay: Binding affinity to cathepsin B in mouse spleen crude extracts; type: tissue-based
[3] = biological target: Cathepsin B (Mus musculus) (UniProt P10605); assay: Binding affinity to cathepsin B in wild type mouse NIH/3T3 cells; type: cell-based; conditions: NIH3T3
[4] = biological target: T1, Procathepsin L (Mus musculus) (UniProt P06797); assay: Binding affinity to cathepsin L in wild type mouse NIH/3T3 cells; type: cell-based; conditions: NIH3T3
T1 sequence (whole entry): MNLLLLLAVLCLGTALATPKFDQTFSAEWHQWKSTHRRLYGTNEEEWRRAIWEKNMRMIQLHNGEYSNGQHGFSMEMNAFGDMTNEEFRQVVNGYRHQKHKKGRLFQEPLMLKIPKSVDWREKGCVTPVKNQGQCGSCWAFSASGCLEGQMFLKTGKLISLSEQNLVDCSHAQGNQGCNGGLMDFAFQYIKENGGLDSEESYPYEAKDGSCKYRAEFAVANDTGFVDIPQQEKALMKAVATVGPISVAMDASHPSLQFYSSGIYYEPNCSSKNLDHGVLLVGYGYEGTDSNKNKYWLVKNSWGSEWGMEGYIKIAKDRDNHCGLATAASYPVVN

[5] = biological target: Cathepsin B (Homo sapiens) (UniProt P07858); assay: Inhibition of human recombinant cathepsin B
[6] = biological target: Procathepsin L (Homo sapiens) (UniProt P07711); assay: Inhibition of human recombinant cathepsin L
[7] = biological target: Cathepsin B (Homo sapiens) (UniProt P07858); assay: Binding affinity to cathepsin B in human MDA-MB-231 cell lysates; type: cell-free

Sequence of Cathepsin B (Mus musculus) (P10605 80-333 limits assumed): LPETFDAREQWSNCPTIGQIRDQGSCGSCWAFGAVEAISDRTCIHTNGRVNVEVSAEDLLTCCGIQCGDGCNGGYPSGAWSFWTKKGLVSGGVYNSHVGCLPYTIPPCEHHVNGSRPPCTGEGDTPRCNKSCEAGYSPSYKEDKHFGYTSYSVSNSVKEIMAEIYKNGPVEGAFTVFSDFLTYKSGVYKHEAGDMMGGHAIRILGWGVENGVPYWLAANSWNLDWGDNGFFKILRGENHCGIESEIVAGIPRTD
Sequence of Procathepsin L (Homo sapiens) (P07711 114-333 limits assumed): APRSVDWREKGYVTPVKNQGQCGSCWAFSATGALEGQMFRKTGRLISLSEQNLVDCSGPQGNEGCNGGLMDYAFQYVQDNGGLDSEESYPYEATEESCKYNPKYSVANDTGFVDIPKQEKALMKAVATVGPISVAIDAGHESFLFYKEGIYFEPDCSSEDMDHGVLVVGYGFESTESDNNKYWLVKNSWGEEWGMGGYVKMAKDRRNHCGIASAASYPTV

Row | Activity [1] | Activity [2] | Activity [3] | Activity [4] | Activity [5] [M⁻¹ s⁻¹] | Activity [6] [M⁻¹ s⁻¹] | Activity [7] | Structure (SMILES)
1 | Active | Active | Active | Active | – | – | – | COc1ccc(-c2ccc3n2[B-](F)(F)[N+]2=C(C)C(CCC(=O)NCCCCCC(=O)N[C@@H](Cc4ccccc4)C(=O)N[C@@H](C)/C=C/C(C)=O)=C(C)C2=C3)cc1
2 | – | – | – | – | 36700 | 1.63e+06 | – | CC(=O)/C=C/[C@H](C)NC(=O)[C@H](Cc1ccccc1)NC(=O)OCc1ccccc1
3 | Active | – | – | – | – | – | Active | CC(=O)/C=C/[C@H](C)NC(=O)[C@H](Cc1ccccc1)NC(=O)CCOCCOCCOCCOCCNC(=O)CCCC[C@H]1SC[C@H]2NC(=O)N[C@H]21

Source: ChEMBL document CHEMBL1140990, “Evaluation of alpha,beta-unsaturated ketone-based probes for papain-family cysteine proteases” (Bioorg Med Chem, 2009)
